Laboratory results: the OligoGym collection
HELM strings list units from the 5' end as sugar, base in round brackets, then linkage (d deoxyribose, r ribose, m 2'-O-methyl, p phosphodiester). Strings are as the collection lists them; they lack the last nucleoside at the 3' end of the tested compound. [moe] = 2'-O-(2-methoxyethyl) (MOE); [sp] = phosphorothioate linkage; [m5C] = 5-methylcytosine

molecular target: SCN2A; assay: mouse, dose not given; conditions: ASO

Substance | 3 h FOB score
RNA1{[moe](A)[sp].[moe](A)p.[moe](G)p.[moe](T)p.[moe](A)p.d(G)[sp].d(T)[sp].d(A)[sp].d([m5C])[sp].d([m5C])[sp].d(A)[sp].d(T)[sp].d(T)[sp].d([m5C])[sp].d([m5C])[sp].[moe]([m5C])p.[moe](A)p.[moe](T)[sp].[moe]([m5C])}$$$$ (last 3' nucleoside missing) | 0 score 0-7
RNA1{[moe](A)[sp].[moe](A)p.[moe](T)p.[moe](T)p.[moe]([m5C])p.[moe](T)p.d(A)[sp].d(T)[sp].d(T)[sp].d(T)[sp].d(T)[sp].d(A)[sp].d(T)[sp].d(A)[sp].d(A)[sp].d(A)[sp].[moe](T)p.[moe](G)[sp].[moe]([m5C])}$$$$ (last 3' nucleoside missing) | 0.33 score 0-7
RNA1{[moe](A)[sp].[moe](A)p.[moe](T)p.[moe](T)p.[moe]([m5C])p.d(T)[sp].d(A)[sp].d(T)[sp].d(T)[sp].d(T)[sp].d(T)[sp].d(A)[sp].d(T)[sp].d(A)[sp].d(A)[sp].[moe](A)p.[moe](T)p.[moe](G)[sp].[moe]([m5C])}$$$$ (last 3' nucleoside missing) | 0 score 0-7
RNA1{[moe](A)[sp].[moe](A)p.[moe](T)p.[moe](T)p.d([m5C])[sp].d(T)[sp].d(A)[sp].d(T)[sp].d(T)[sp].d(T)[sp].d(T)[sp].d(A)[sp].d(T)[sp].d(A)[sp].[moe](A)p.[moe](A)p.[moe](T)p.[moe](G)[sp].[moe]([m5C])}$$$$ (last 3' nucleoside missing) | 0 score 0-7
RNA1{[moe](A)[sp].[moe](A)p.[moe](T)p.[moe]([m5C])p.[moe](A)p.[moe]([m5C])p.d(T)[sp].d(T)[sp].d(T)[sp].d([m5C])[sp].d(A)[sp].d(T)[sp].d([m5C])[sp].d([m5C])[sp].d(A)[sp].d([m5C])[sp].[moe](G)p.[moe](A)[sp].[moe]([m5C])}$$$$ (last 3' nucleoside missing) | 0 score 0-7
RNA1{[moe](A)[sp].[moe](A)p.[moe](T)p.[moe]([m5C])p.[moe](A)p.d([m5C])[sp].d(T)[sp].d(T)[sp].d(T)[sp].d([m5C])[sp].d(A)[sp].d(T)[sp].d([m5C])[sp].d([m5C])[sp].d(A)[sp].[moe]([m5C])p.[moe](G)p.[moe](A)[sp].[moe]([m5C])}$$$$ (last 3' nucleoside missing) | 0 score 0-7
RNA1{[moe](A)[sp].[moe](A)p.[moe](T)p.[moe]([m5C])p.d(A)[sp].d([m5C])[sp].d(T)[sp].d(T)[sp].d(T)[sp].d([m5C])[sp].d(A)[sp].d(T)[sp].d([m5C])[sp].d([m5C])[sp].[moe](A)p.[moe]([m5C])p.[moe](G)p.[moe](A)[sp].[moe]([m5C])}$$$$ (last 3' nucleoside missing) | 0.33 score 0-7
RNA1{[moe](A)[sp].[moe](G)p.[moe](T)p.[moe](T)p.d(T)[sp].d(T)[sp].d(T)[sp].d(T)[sp].d([m5C])[sp].d(A)[sp].d(T)[sp].d(T)[sp].d(G)[sp].d([m5C])[sp].[moe](A)p.[moe](T)p.[moe]([m5C])p.[moe]([m5C])[sp].[moe](T)}$$$$ (last 3' nucleoside missing) | 3 score 0-7
RNA1{[moe](A)[sp].[moe](G)p.[moe]([m5C])p.[moe](A)p.[moe](T)p.[moe](G)p.d(T)[sp].d(T)[sp].d(T)[sp].d(A)[sp].d(T)[sp].d([m5C])[sp].d(T)[sp].d(T)[sp].d(A)[sp].d(G)[sp].[moe](T)p.[moe](T)[sp].[moe]([m5C])}$$$$ (last 3' nucleoside missing) | 1 score 0-7
RNA1{[moe](A)[sp].[moe](G)p.[moe]([m5C])p.[moe](A)p.[moe](T)p.d(G)[sp].d(T)[sp].d(T)[sp].d(T)[sp].d(A)[sp].d(T)[sp].d([m5C])[sp].d(T)[sp].d(T)[sp].d(A)[sp].[moe](G)p.[moe](T)p.[moe](T)[sp].[moe]([m5C])}$$$$ (last 3' nucleoside missing) | 0 score 0-7
RNA1{[moe](A)[sp].[moe](G)p.[moe]([m5C])p.[moe](A)p.d(T)[sp].d(A)[sp].d(T)[sp].d(T)[sp].d([m5C])[sp].d(T)[sp].d(A)[sp].d(A)[sp].d([m5C])[sp].d(A)[sp].[moe](T)p.[moe](G)p.[moe](G)p.[moe](T)[sp].[moe]([m5C])}$$$$ (last 3' nucleoside missing) | 0 score 0-7
RNA1{[moe](A)[sp].[moe](G)p.[moe]([m5C])p.[moe](A)p.d(T)[sp].d(G)[sp].d(T)[sp].d(T)[sp].d(T)[sp].d(A)[sp].d(T)[sp].d([m5C])[sp].d(T)[sp].d(T)[sp].[moe](A)p.[moe](G)p.[moe](T)p.[moe](T)[sp].[moe]([m5C])}$$$$ (last 3' nucleoside missing) | 0 score 0-7
RNA1{[moe](A)[sp].[moe](G)p.[moe]([m5C])p.[moe](T)p.[moe]([m5C])p.d(T)[sp].d(T)[sp].d(T)[sp].d(T)[sp].d(T)[sp].d([m5C])[sp].d(A)[sp].d([m5C])[sp].d(T)[sp].d(T)[sp].[moe](T)p.[moe](T)p.[moe](G)[sp].[moe](G)}$$$$ (last 3' nucleoside missing) | 0.67 score 0-7
RNA1{[moe](A)[sp].[moe](T)p.[moe](A)p.[moe](T)p.[moe](T)p.[moe](T)p.d(T)[sp].d(T)[sp].d([m5C])[sp].d(T)[sp].d(A)[sp].d([m5C])[sp].d(A)[sp].d([m5C])[sp].d(T)[sp].d(G)[sp].[moe]([m5C])p.[moe](T)[sp].[moe](G)}$$$$ (last 3' nucleoside missing) | 2 score 0-7
RNA1{[moe](A)[sp].[moe](T)p.[moe](A)p.[moe](T)p.[moe](T)p.d(T)[sp].d(T)[sp].d(T)[sp].d([m5C])[sp].d(T)[sp].d(A)[sp].d([m5C])[sp].d(A)[sp].d([m5C])[sp].d(T)[sp].[moe](G)p.[moe]([m5C])p.[moe](T)[sp].[moe](G)}$$$$ (last 3' nucleoside missing) | 1 score 0-7
RNA1{[moe](A)[sp].[moe](T)p.[moe](A)p.[moe](T)p.d(T)[sp].d(T)[sp].d(T)[sp].d(T)[sp].d([m5C])[sp].d(T)[sp].d(A)[sp].d([m5C])[sp].d(A)[sp].d([m5C])[sp].[moe](T)p.[moe](G)p.[moe]([m5C])p.[moe](T)[sp].[moe](G)}$$$$ (last 3' nucleoside missing) | 1 score 0-7
RNA1{[moe](A)[sp].[moe](T)p.[moe](G)p.[moe](G)p.[moe](T)p.d(T)[sp].d(G)[sp].d(G)[sp].d(A)[sp].d(A)[sp].d(A)[sp].d(T)[sp].d(A)[sp].d([m5C])[sp].d(A)[sp].[moe](G)p.[moe]([m5C])p.[moe](T)[sp].[moe](G)}$$$$ (last 3' nucleoside missing) | 1 score 0-7
RNA1{[moe](A)[sp].[moe](T)p.[moe](G)p.[moe](T)p.[moe](A)p.[moe](A)p.d(T)[sp].d([m5C])[sp].d(A)[sp].d([m5C])[sp].d(T)[sp].d(T)[sp].d(T)[sp].d([m5C])[sp].d(A)[sp].d(T)[sp].[moe]([m5C])p.[moe]([m5C])[sp].[moe](A)}$$$$ (last 3' nucleoside missing) | 0 score 0-7
RNA1{[moe](A)[sp].[moe](T)p.[moe](G)p.[moe](T)p.[moe](A)p.[moe](A)p.d([m5C])[sp].d([m5C])[sp].d(T)[sp].d(T)[sp].d(T)[sp].d(A)[sp].d(T)[sp].d(A)[sp].d([m5C])[sp].d(A)[sp].[moe](T)p.[moe](T)[sp].[moe](T)}$$$$ (last 3' nucleoside missing) | 0 score 0-7
RNA1{[moe](A)[sp].[moe](T)p.[moe](G)p.[moe](T)p.[moe](A)p.d(A)[sp].d(T)[sp].d([m5C])[sp].d(A)[sp].d([m5C])[sp].d(T)[sp].d(T)[sp].d(T)[sp].d([m5C])[sp].d(A)[sp].[moe](T)p.[moe]([m5C])p.[moe]([m5C])[sp].[moe](A)}$$$$ (last 3' nucleoside missing) | 0 score 0-7
RNA1{[moe](A)[sp].[moe](T)p.[moe](G)p.[moe](T)p.[moe](A)p.d(A)[sp].d([m5C])[sp].d([m5C])[sp].d(T)[sp].d(T)[sp].d(T)[sp].d(A)[sp].d(T)[sp].d(A)[sp].d([m5C])[sp].[moe](A)p.[moe](T)p.[moe](T)[sp].[moe](T)}$$$$ (last 3' nucleoside missing) | 0 score 0-7
RNA1{[moe](A)[sp].[moe](T)p.[moe](G)p.[moe](T)p.d(A)[sp].d(A)[sp].d(T)[sp].d([m5C])[sp].d(A)[sp].d([m5C])[sp].d(T)[sp].d(T)[sp].d(T)[sp].d([m5C])[sp].[moe](A)p.[moe](T)p.[moe]([m5C])p.[moe]([m5C])[sp].[moe](A)}$$$$ (last 3' nucleoside missing) | 0.33 score 0-7
RNA1{[moe](A)[sp].[moe](T)p.[moe](G)p.[moe](T)p.d(A)[sp].d(A)[sp].d([m5C])[sp].d([m5C])[sp].d(T)[sp].d(T)[sp].d(T)[sp].d(A)[sp].d(T)[sp].d(A)[sp].[moe]([m5C])p.[moe](A)p.[moe](T)p.[moe](T)[sp].[moe](T)}$$$$ (last 3' nucleoside missing) | 0 score 0-7
RNA1{[moe](A)[sp].[moe](T)p.[moe](G)p.[moe]([m5C])p.[moe](A)p.[moe](T)p.d(A)[sp].d(A)[sp].d(T)[sp].d([m5C])[sp].d([m5C])[sp].d([m5C])[sp].d(A)[sp].d(T)[sp].d(T)[sp].d(A)[sp].[moe](T)p.[moe](A)[sp].[moe]([m5C])}$$$$ (last 3' nucleoside missing) | 0 score 0-7
RNA1{[moe](A)[sp].[moe](T)p.[moe](G)p.[moe]([m5C])p.d(A)[sp].d(T)[sp].d(A)[sp].d(A)[sp].d(T)[sp].d([m5C])[sp].d([m5C])[sp].d([m5C])[sp].d(A)[sp].d(T)[sp].[moe](T)p.[moe](A)p.[moe](T)p.[moe](A)[sp].[moe]([m5C])}$$$$ (last 3' nucleoside missing) | 0 score 0-7
RNA1{[moe](A)[sp].[moe](T)p.[moe](T)p.[moe](T)p.[moe]([m5C])p.[moe](T)p.d(A)[sp].d(T)[sp].d(A)[sp].d(A)[sp].d([m5C])[sp].d(T)[sp].d([m5C])[sp].d(A)[sp].d(G)[sp].d([m5C])[sp].[moe](A)p.[moe](A)[sp].[moe]([m5C])}$$$$ (last 3' nucleoside missing) | 1 score 0-7
